These results are taken from ChEMBL document CHEMBL1153236, “Non-aromatic A-ring replacement in the triaryl bis-sulfone CB2 receptor inhibitors” (Bioorg Med Chem Lett, 2010).

The species named for the data set is Rattus norvegicus. The following applies: in vivo, 6 h.
Molecule `O=S(=O)(c1ccccc1F)c1cc(Cl)ccc1S(=O)(=O)N1CCC(CNS(=O)(=O)C(F)(F)F)CC1` came in with an AUC of 1.9 µM. `O=S(=O)(c1ccccn1)c1ccc(Cl)cc1S(=O)(=O)N1CCC2(CC1)CC2NS(=O)(=O)C(F)(F)F` (stereo not drawn) came in with an AUC of 6.1 µM.

The molecule `O=S(=O)(c1ccccn1)c1ccc(OC(F)(F)F)cc1S(=O)(=O)N1CCC2(CC1)CC2NS(=O)(=O)C(F)(F)F` (stereo not drawn) had an AUC of 7.3 µM.
